Laboratory results reported in BindingDB's records for doi:10.1016/j.bmc.2012.05.068 (Duquesne University, 2012).

Tests used:
[1] = target: Dihydroorotate dehydrogenase (quinone), mitochondrial (Homo sapiens, UniProt Q02127); assay: Inhibition of human DHODH
Thymidylate synthase = Thymidylate synthase (Homo sapiens, UniProt P04818); assay: Inhibition of human thymidylate synthase
[2] = target: T1, Bifunctional dihydrofolate reductase-thymidylate synthase (Toxoplasma gondii, UniProt Q07422); assay: Inhibition of Toxoplasma gondii thymidylate synthase
T1 sequence (Q07422 whole entry): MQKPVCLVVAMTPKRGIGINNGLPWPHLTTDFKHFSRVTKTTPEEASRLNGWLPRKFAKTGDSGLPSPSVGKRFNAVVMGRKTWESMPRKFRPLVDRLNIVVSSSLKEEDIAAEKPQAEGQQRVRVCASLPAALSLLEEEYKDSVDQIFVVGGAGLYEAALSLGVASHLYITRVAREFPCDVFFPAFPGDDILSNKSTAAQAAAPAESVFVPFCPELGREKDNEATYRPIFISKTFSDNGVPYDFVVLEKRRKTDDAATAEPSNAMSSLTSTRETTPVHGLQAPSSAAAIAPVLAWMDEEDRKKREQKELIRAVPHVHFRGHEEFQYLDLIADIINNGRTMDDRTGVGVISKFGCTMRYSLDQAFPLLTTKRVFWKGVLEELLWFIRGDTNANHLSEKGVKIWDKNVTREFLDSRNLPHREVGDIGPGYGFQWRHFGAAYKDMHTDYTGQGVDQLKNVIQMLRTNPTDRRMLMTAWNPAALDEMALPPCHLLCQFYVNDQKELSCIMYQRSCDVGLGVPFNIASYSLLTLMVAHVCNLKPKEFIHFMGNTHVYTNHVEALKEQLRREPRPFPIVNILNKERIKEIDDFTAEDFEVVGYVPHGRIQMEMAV

[3] = target: T1, Bifunctional dihydrofolate reductase-thymidylate synthase; assay: Inhibition of Toxoplasma gondii DHFR

Thymidylate synthase, sequence (P04818 whole entry): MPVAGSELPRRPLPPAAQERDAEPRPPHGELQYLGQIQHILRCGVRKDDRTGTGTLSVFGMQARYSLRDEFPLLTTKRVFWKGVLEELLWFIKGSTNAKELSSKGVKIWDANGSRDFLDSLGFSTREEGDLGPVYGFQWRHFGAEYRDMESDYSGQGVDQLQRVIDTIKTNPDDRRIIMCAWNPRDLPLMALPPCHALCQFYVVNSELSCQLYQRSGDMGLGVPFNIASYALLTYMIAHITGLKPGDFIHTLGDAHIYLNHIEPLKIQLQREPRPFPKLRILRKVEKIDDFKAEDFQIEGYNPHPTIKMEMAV
Dihydroorotate dehydrogenase (quinone), mitochondrial, sequence (Q02127 whole entry): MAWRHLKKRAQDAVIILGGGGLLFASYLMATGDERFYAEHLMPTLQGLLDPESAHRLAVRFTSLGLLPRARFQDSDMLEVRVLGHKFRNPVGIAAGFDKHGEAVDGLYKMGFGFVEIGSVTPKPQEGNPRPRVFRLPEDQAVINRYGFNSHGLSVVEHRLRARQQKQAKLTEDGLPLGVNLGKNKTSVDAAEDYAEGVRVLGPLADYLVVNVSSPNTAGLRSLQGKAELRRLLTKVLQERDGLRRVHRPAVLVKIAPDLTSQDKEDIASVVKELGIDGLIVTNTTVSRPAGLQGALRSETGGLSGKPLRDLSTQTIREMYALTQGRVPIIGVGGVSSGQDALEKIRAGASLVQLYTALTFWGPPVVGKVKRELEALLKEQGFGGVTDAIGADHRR

Row | SMILES | IC50 [1] | IC50 (Thymidylate synthase) | IC50 [2] | IC50 [3]
1 | Nc1nc2cc3ccccc3c-2c(Nc2ccc(Cl)cc2F)[nH]1 | > 200 µM | > 13 µM | > 13 µM | > 16 µM
2 | Nc1nc2cc3ccccc3c-2c(Nc2ccc(F)c(Cl)c2)[nH]1 |  | > 13 µM | > 13 µM | > 16 µM
3 | Nc1nc2cc3ccccc3c-2c(Nc2cccc(Br)c2)[nH]1 | > 200 µM |  |  | > 14 µM
4 | Nc1nc2cc3ccccc3c-2c(Nc2ccc(Cl)cc2)[nH]1 | > 200 µM | > 14 µM | > 14 µM | > 16 µM
5 | COc1cccc(Nc2[nH]c(N)nc3cc4ccccc4c2-3)c1 | > 200 µM |  |  | 
6 | Nc1nc2cc3ccccc3c-2c(Nc2ccccc2)[nH]1 | > 200 µM |  |  | 
7 | Nc1nc2cc3ccccc3c-2c(Nc2cccc(F)c2)[nH]1 | > 200 µM |  |  | 
8 | CC(C)c1ccc(Nc2[nH]c(N)nc3cc4ccccc4c2-3)cc1 |  | > 14 µM | > 14 µM | > 16 µM
